Molecules are shown by their SMILES.

Type in all cases: in vivo
One series concerns IL-6. In words: LPS model of inflammation in rats: IL-6 in plasma, cortex, hippocampus. The settings on record: 29.57 mg/kg i.p.; LPS rat model. How it is done: Four hours after LPS injection, animals were euthanized, and blood and brain tissue were collected and placed on wet ice. Plasma was quickly separated from blood by centrifuge at 10,000 g. 5 min, 4° C., and brain regions of cortex, hippocampus and the rest of brain were dissected into separate vials on wet ice, then stored at −80° C. Brain tissues were then sonicated in a TRIS based lysis buffer (Mesoscale Discovery) with 3× protease/phosphatase inhibitors (Halt™ Protease and Phosphatase Inhibitor Cocktail, Thermo Fisher Scientific), were then centrifuged at 10,000 g, 10 min, 4° C., and protein concentrations were measured by Bicinchoninic acid assay (BCA, Thermo Fisher Scientific). Rat plasma, cerebral cortical and hippocampal samples were then analyzed by multi-proinflammatory cytokines ELISA (V-PLEX Proinflammatory Panel 2 Rat Kit, Mesoscale Discovery), following the manufacturer's protocol. The processes and dosages of the experiment of drug treatment effects on LPS rat model was made on the basis of our previous studies.

The test system of the next series is CCI-induced TBI mice. In words: CCI mouse model of TBI: DigiGait gait analysis. The settings on record: high dose 32.5 mg/kg; 1 week after CCI. As to the method: In vivo model of TBI: Mice were anesthetized with 2.5% tribromoethanol (Avertin: 250 mg/kg; Sigma, St. Louis, MO, USA) and placed in a stereotaxic frame (Kopf Instruments, Tujunga, CA, USA). A 4 mm craniotomy was performed using sterile procedures; the craniotomy point was selected midway between the lambda and bregma sutures and laterally midway between the central suture and the temporalis muscle. The skull fragment was then carefully removed without disruption of the underlying dura. Prior to injury induction, the tip of the impactor was angled and kept perpendicular to the exposed cortical surface. The mouse CCI instrument consisted of an electromagnetic impactor, Impact One (Leica Biosystems Inc., Buffalo Grove, IL, USA) that allows independent alteration of injury severity by controlling contact velocity and the level of cortical deformation. In these experiments, the contact velocity was set at 5.0 m/sec, the dwell time was set at 0.2 s and the deformation depth was set at 2 mm to produce a moderate TBI. The injury site was allowed to dry prior to suturing the wound. During surgery and recovery, the body temperature of the animals was maintained at 36-37° C. by using a heating pad. […] Mice were randomized following CCI to treatment with either of two doses of TFBP (16.25 mg/kg and 32.5 mg/kg, i.p.) or saline, and were dosed at 1 and 24 hr after the injury.
Behavioral assessment for motor functions and coordination: Behavioral tests were performed 1 week and 2 weeks after injury, to assess changes in motor functions and coordination. All tests were performed during the animals' light phase; cages were transported to testing rooms at least 30 min prior to testing.
Gait analysis: For the gait analysis, mice were tested on a fixed-speed treadmill apparatus (DigiGait; Mouse Specifics). Mice were habituated to the apparatus for 1 min, and then given a 1-min run at 5 cm/s. Following a 1-min rest, the treadmill speed was increased to 15 cm/s. Video was collected at high speed from a ventrally placed camera, and 3-5 s of representative gait video was selected by an experienced but blinded user for automated analysis.
In Vivo Model of TBI: TBI studies were conducted in 8-week-old male C57/BL6 mice (25-30 g; n=20), Jackson Laboratory, Bar Harbor, Maine USA. Mice were randomly assigned to four groups prior surgery, CMC+Sham, CMC+TBI, compound 30 (Low dose (LD), 14.78 mg/kg, prepared in 1% CMC in PBS)+TBI, compound 30 (High dose (HD), 29.57 mg/kg)+TBI, and evaluated the effects of compound 30 on TBI. Mice were assessed for gait function and motor coordination, balance function. Animals were subsequently evaluated for cellular changes using histological and immunohistochemistry staining. […]

In a further series the test system is chicken embryos. Kind of series: Chick embryo teratogenicity. As to the method:
Chick embryology and analysis: Chicken eggs were obtained from Henry Stewart & Co Ltd, Norfolk UK. All work with chicken embryos obeyed UK Home Office regulations and followed guidelines, standards and practices governed by the University of Aberdeen Ethics Committee (Scotland, UK). […] Embryos were incubated at 37° C. for the required time period to reach E2.5 and E4 (early and mid-developmental stages, respectively). Eggs were then opened and the embryonic membranes protecting the embryos were removed with forceps. Chicken embryos typically lie on one side, so the left side is directly against the yolk and the right side can be observed. Drug (TFBP) or Control (DMSO alone) solutions were applied in 100 μL aliquots over the middle of the embryo on its right side. Embryos were left at room temperature for 20 min before being replaced in a 37° C. incubator. Due to the limited diffusion of drugs when applied to the right side of an embryo, the right side is considered the ‘treatment’ side and the left (facing internally towards the yolk sack) is considered normal after treatment and can, thereby, act as an internal control.

[1] abbreviates: 3.5 μM, chicken embryos age E4, N = 7.
Where [2] appears, read: 7.0 μM, chicken embryos age E2.5, N = 6.
[3] abbreviates: 7.0 μM, chicken embryos age E4, N = 7.
[4] abbreviates: 14.0 μM, chicken embryos age E2.5, N = 6.

With `Nc1ccc(F)c2c1C(=S)N(C1CCC(=S)NC1=O)C2=O` (stereo not drawn) [Compound 30, 4-amino-7-fluoro-2-(2-oxo-6-thioxopiperidin-3-yl)-3-thioxoisoindolin-1-one], the “IL-6 in plasma, cortex, and hippocampus” value in the series on IL-6 is listed as “significantly reduce”.

With `CC1(C)[C@@H]2CC[C@@]1(C)[C@@H](N1C(=O)c3c(F)c(F)c(F)c(F)c3C1=O)C2` [Compound 14, 4,5,6,7-Tetrafluoro-2-((1R,2S,4R)-1,7,7-trimethylbicyclo[2.2.1]heptan-2-yl) isoindoline-1,3-dione], the gait brake time entry in the series with CCI-induced TBI mice is “fully mitigates this rise”. Moreover, the Abnormal embryos in the series on chicken embryos (setting [1]), in the series on chicken embryos (setting [2]) and in the series with chicken embryos (setting [3]) was 0 in each case. For the same compound, the Dead embryos is 0 in the series with chicken embryos (setting [1]), 2 in the series with chicken embryos (setting [2]), 3 in the series with chicken embryos (setting [3]) and 3 in the series on chicken embryos (setting [4]). Further, the Normal embryos is on record as 7 in the series on chicken embryos (setting [1]), 4 with chicken embryos (setting [2]), 4 with chicken embryos (setting [3]) and 2 in the series with chicken embryos (setting [4]). In addition, the “developmental anomaly in chicken embryos” value in the series on chicken embryos (14.0 μM, a single embryo, eye on control side) is on record as “micro-opthalmia of the eye”. In addition, the “deaths of chicken embryos” value in the series on chicken embryos (14.0 μM, around 48-72 h after application) is “three deaths”. In the series with chicken embryos (3.5 and 7.0 μM), the “effects on embryo development” value is “No effects on embryo development”. In the series with chicken embryos (lower dose 3.5 μM, E2.5 and E4), the “tolerability in chicken embryos” value is on record as “well tolerated”. Also, the “death rate in chicken embryos” value with chicken embryos (two higher doses 7.0 and 14.0 μM) is “increasing death rate”.

The values are drawn from patent publication US20260055061A1, “HALOPHTHALIMIDE COMPOUNDS AND METHODS OF USE AGAINST TBI, INFLAMMATORY DISORDER, AUTOIMMUNE DISORDER, NEURODEGENERATIVE DISEASE OR VIRAL INFECTION” (The United States of America, as represented by the …, priority 2022, published 2026).
